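Tested at 5 concentrations; 48 h exposure; 96-well plates; endpoints linearly interpolated, else capped at highest concentration. GI50: concentration for 50% inhibition of growth.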 Calls of active or inactive are those of the source. Cut-off read from the data, not from the text of the source: active = GI50 up to about 1.1 µM and inactive = higher.
Key:
Experiment in all cases: growth of human tumour cells (NCI), 48 h
OVCAR-5 = system: OVCAR-5
ACHN = system: ACHN
KM12 = system: KM12
SK-MEL-28 = system: SK-MEL-28
NCI-H460 = system: NCI-H460
SK-MEL-5 = system: SK-MEL-5
RXF 393 = system: RXF 393
SK-OV-3 = system: SK-OV-3
HOP-62 = system: HOP-62
DMS-273 = system: DMS-273
M19-MEL = system: M19-MEL
NCI-H522 = system: NCI-H522
DMS-114 = system: DMS-114
M14 = system: M14
SN12C = system: SN12C
HCC 2998 = system: HCC 2998
IGROV-1 = system: IGROV-1
HOP-92 = system: HOP-92
U-251 = system: U-251
UACC-257 = system: UACC-257
HCT-116 = system: HCT-116
Malme-3M = system: Malme-3M
SNB-75 = system: SNB-75
SR = system: SR
DLD-1 = system: DLD-1
MOLT-4 = system: MOLT-4
UO-31 = system: UO-31
OVCAR-8 = system: OVCAR-8
SF-295 = system: SF-295
NCI-H226 = system: NCI-H226
TK-10 = system: TK-10
OVCAR-3 = system: OVCAR-3
NCI-H23 = system: NCI-H23
A549 = system: A549
COLO 205 = system: COLO 205
786-0 = system: 786-0
RPMI-8226 = system: RPMI-8226
HL-60 = system: HL-60
SF-539 = system: SF-539
CCRF-CEM = system: CCRF-CEM
LXFL 529 = system: LXFL 529
KM-20L2 = system: KM-20L2
UACC-62 = system: UACC-62
HT-29 = system: HT-29
OVCAR-4 = system: OVCAR-4
SW-620 = system: SW-620
K562 = system: K562
SF-268 = system: SF-268
LOX IMVI = system: LOX IMVI
RXF 631 = system: RXF 631
HCT-15 = system: HCT-15
CAKI-1 = system: CAKI-1
SNB-78 = system: SNB-78
XF498 = system: XF498
SK-MEL-2 = system: SK-MEL-2
EKVX = system: EKVX
A498 = system: A498
SNB-19 = system: SNB-19

For `CCOC(=O)C(C[Si](C)(C)C)P(=O)(OCC)OCC` (stereo not given), the GI50 (OVCAR-5) was > 100 µM (inactive), the GI50 (ACHN) was > 100 µM (inactive) and the GI50 (KM12) was > 100 µM (inactive). For the same molecule, the GI50 (SK-MEL-28) was > 100 µM (inactive), the GI50 (NCI-H460) was > 100 µM (inactive) and the GI50 (SK-MEL-5) was > 100 µM (inactive). For the same molecule, the GI50 (RXF 393) was > 100 µM (inactive), the GI50 (SK-OV-3) was > 100 µM (inactive) and the GI50 (HOP-62) was > 100 µM (inactive). For the same molecule, the GI50 (DMS-273) was > 100 µM (inactive), the GI50 (M19-MEL) was > 100 µM (inactive) and the GI50 (NCI-H522) was > 100 µM (inactive). The GI50 (DMS-114) was > 100 µM (inactive), the GI50 (M14) was > 100 µM (inactive) and the GI50 (SN12C) was > 100 µM (inactive). For the same molecule, the GI50 (HCC 2998) was > 100 µM (inactive), the GI50 (IGROV-1) was > 100 µM (inactive) and the GI50 (HOP-92) was > 100 µM (inactive). For the same molecule, the GI50 (U-251) was > 100 µM (inactive), the GI50 (UACC-257) was > 100 µM (inactive) and the GI50 (HCT-116) was > 100 µM (inactive). For the same molecule, the GI50 (Malme-3M) was > 100 µM (inactive), the GI50 (SNB-75) was 38.5 µM (inactive) and the GI50 (SR) was > 100 µM (inactive). The GI50 (DLD-1) was > 100 µM (inactive), the GI50 (MOLT-4) was > 100 µM (inactive) and the GI50 (UO-31) was > 100 µM (inactive). The GI50 (OVCAR-8) was > 100 µM (inactive), the GI50 (SF-295) was > 100 µM (inactive) and the GI50 (NCI-H226) was > 100 µM (inactive). For the same molecule, the GI50 (TK-10) was > 100 µM (inactive), the GI50 (OVCAR-3) was > 100 µM (inactive) and the GI50 (NCI-H23) was > 100 µM (inactive). For the same molecule, the GI50 (A549) was > 100 µM (inactive), the GI50 (COLO 205) was > 100 µM (inactive) and the GI50 (786-0) was > 100 µM (inactive). For the same molecule, the GI50 (RPMI-8226) was > 100 µM (inactive), the GI50 (HL-60) was > 100 µM (inactive) and the GI50 (SF-539) was > 100 µM (inactive). The GI50 (CCRF-CEM) was > 100 µM (inactive), the GI50 (LXFL 529) was > 100 µM (inactive) and the GI50 (KM-20L2) was > 100 µM (inactive). For the same molecule, the GI50 (UACC-62) was > 100 µM (inactive), the GI50 (HT-29) was > 100 µM (inactive) and the GI50 (OVCAR-4) was > 100 µM (inactive). The GI50 (SW-620) was > 100 µM (inactive), the GI50 (K562) was > 100 µM (inactive) and the GI50 (SF-268) was > 100 µM (inactive). For the same molecule, the GI50 (LOX IMVI) was > 100 µM (inactive), the GI50 (RXF 631) was > 100 µM (inactive) and the GI50 (HCT-15) was greater than 100 µM. The GI50 (CAKI-1) was > 100 µM (inactive), the GI50 (SNB-78) was > 100 µM (inactive) and the GI50 (XF498) was > 100 µM (inactive).

`CNC(=O)N(CCCCC(NC(C)=O)C(=O)NCc1ccccc1)Cc1ccccc1` (stereo not given) was tested, and the GI50 (OVCAR-5) was > 100 µM (inactive), the GI50 (ACHN) was > 100 µM (inactive) and the GI50 (KM12) was > 100 µM (inactive). The GI50 (SK-MEL-28) was > 100 µM (inactive), the GI50 (NCI-H460) was > 100 µM (inactive) and the GI50 (SK-MEL-5) was > 100 µM (inactive). For the same molecule, the GI50 (RXF 393) was > 100 µM (inactive), the GI50 (SK-OV-3) was > 100 µM (inactive) and the GI50 (HOP-62) was > 100 µM (inactive). The GI50 (SK-MEL-2) was > 100 µM (inactive), the GI50 (DMS-273) was > 100 µM (inactive) and the GI50 (M19-MEL) was > 100 µM (inactive). The GI50 (NCI-H522) was > 100 µM (inactive), the GI50 (DMS-114) was > 100 µM (inactive) and the GI50 (M14) was > 100 µM (inactive). The GI50 (SN12C) was > 100 µM (inactive), the GI50 (HCC 2998) was > 100 µM (inactive) and the GI50 (IGROV-1) was > 100 µM (inactive). The GI50 (HOP-92) was > 100 µM (inactive), the GI50 (U-251) was > 100 µM (inactive) and the GI50 (UACC-257) was > 100 µM (inactive). The GI50 (HCT-116) was > 100 µM (inactive), the GI50 (Malme-3M) was > 100 µM (inactive) and the GI50 (SNB-75) was > 100 µM (inactive). For the same molecule, the GI50 (EKVX) was > 100 µM (inactive), the GI50 (DLD-1) was > 100 µM (inactive) and the GI50 (MOLT-4) was > 100 µM (inactive). The GI50 (UO-31) was > 100 µM (inactive), the GI50 (OVCAR-8) was > 100 µM (inactive) and the GI50 (SF-295) was > 100 µM (inactive). For the same molecule, the GI50 (A498) was > 100 µM (inactive), the GI50 (NCI-H226) was > 100 µM (inactive) and the GI50 (TK-10) was > 100 µM (inactive). For the same molecule, the GI50 (OVCAR-3) was > 100 µM (inactive), the GI50 (NCI-H23) was > 100 µM (inactive) and the GI50 (A549) was > 100 µM (inactive). The GI50 (COLO 205) was > 100 µM (inactive), the GI50 (786-0) was > 100 µM (inactive) and the GI50 (SNB-19) was > 100 µM (inactive). The GI50 (RPMI-8226) was > 100 µM (inactive), the GI50 (SF-539) was > 100 µM (inactive) and the GI50 (CCRF-CEM) was > 100 µM (inactive). For the same molecule, the GI50 (LXFL 529) was > 100 µM (inactive), the GI50 (KM-20L2) was > 100 µM (inactive) and the GI50 (UACC-62) was > 100 µM (inactive). The GI50 (HT-29) was > 100 µM (inactive), the GI50 (OVCAR-4) was > 100 µM (inactive) and the GI50 (SW-620) was > 100 µM (inactive). The GI50 (K562) was > 100 µM (inactive), the GI50 (SF-268) was > 100 µM (inactive) and the GI50 (LOX IMVI) was > 100 µM (inactive). For the same molecule, the GI50 (RXF 631) was > 100 µM (inactive), the GI50 (HCT-15) was greater than 100 µM and the GI50 (CAKI-1) was > 100 µM (inactive). The GI50 (SNB-78) was > 100 µM (inactive) and the GI50 (XF498) was > 100 µM (inactive).

Reference: ChEMBL document CHEMBL1201862, “PubChem BioAssay data set” (2004)
